Tests used:
[1] = tested on: Mycobacterium tuberculosis; assay: Inhibitory activity against mycothiol-S-conjugate amidase (MCA) was determined
[2] = Inhibitory activity against AcGI deacetylase was determined

## NCCCOc1c(Br)cc(C/C(=N\O)C(=O)NCCCCN=C(N)N)cc1Br
[1]
  Inhibition: 30 µM
[2]
  Inhibition: 150 µM

Reference: ChEMBL document CHEMBL1146810, “Synthesis of a bromotyrosine-derived natural product inhibitor of mycothiol-S-conjugate amidase” (Bioorg Med Chem Lett, 2004)
